How the values were obtained:
Sarcoma 180 [1] = test: Large Sarcoma 180 regressions, injection on day 8 (Table II); format: in vivo, female Swiss white mice; details: single i.p. injection on day 8, H2O solution
Method: In addition to the day 1 injections described above, in a number of case injections were delayed until day 8 of tumor growth. In these cases the tumor was usually at least larger than 1/2 gm, as estimated by palpation. The animals were then injected and observed for a period of approximately 60 days. Activity was measured by the number of animals whose tumors had regressed to the vanishing point, while still allowing the animal to survive for this time period. Such test results are described in TABLE II below.

L1210 = test: Confirmatory antitumor test at the National Cancer Institute, L1210 (Table IV); format: in vivo, Mice; details: daily injections days 1-9, i.p.
From the text: Samples of the malonato diammine and malonato ethylene diamine complexes of platinum(II) were submitted to the Drug Research and Development Branch of the National Cancer Institute for screening for antitumor activity against the L1210 tumor in mice. They confirm the activity of the compounds of the invention.

Sarcoma 180 [2] = test: Antitumor activity, solid sarcoma 180 tumor, T/C of tumor weights at day 10 (Table I); format: in vivo, female Swiss white mice; details: single i.p. injection day 1, slurry in H2O
Method: The compounds of the invention were tested for antitumor activity, i.e., for sensitivity to a planar dsp^2 platinum(II) coordination compound or an octahedral d^2 sp^3 platinum(IV) coordination compound using our standard screening tumor, solid sarcoma 180 tumor in female Swiss white mice, following standard protocols for this testing as set by the National Cancer Institute. (Cancer Chemotherapy Rep., 25 (1962)).
For these tests an S 180 tumor taken from a sacrificed mouse was disected free of superfluous tissue and cut under sterile conditions into approximately 10 milligram size pieces. These tissue pieces were then implanted by trocar in the left axillary region, subcutaneously, in new mice. The mice were, on the average, approximately four weeks old and weighed 18-20 grams. Taking day 0 as the day of implant, the animals were sacrificed on day 10. The tumors were excised and weighed and the ratio of the weights of the tumors in mice in the treated animals to the control set of animals was obtained. This ratio, multiplied by 100, is given as the T/C ratio in Table I.
For the first set of tests the coordination compound was freshly dissolved in sterile distilled water and injected intraperitoneally on day 1 into each of the test mice. The volume of the injection was usually 1/2 ml. In some cases, in order to get an active dose into the animal where the chemical was not soluble in this amount of solvent, a fine dispersion was prepared of the dose needed for the test. Thus, some of our test results were obtained on animals where a slurry of the compound was injected. These are so noted in Table I below. In addition, for some of the compounds, there was injected about 1 ml of solution, either in one single injection, or in 2 injections given a few hours apart of 1/2 ml each. These injections were initially given in 4 different dose levels for each new compound with 6 mice in each dose level. The tests covered a dose range from a low ineffective dose, to an upper dose level which produced some deaths within the time period of the experiment.

[3] = Hydrolysis by U.V./vis spectral and conductivity studies; format: physicochemical; details: recrystallization from boiling water with malonic acid
From the text: *U.V./via spectral and conductivity studies have shown that hydrolysis is negligible.

SMILES: O=C(O)CC(=O)O.[NH2-].[NH2-].[Pt+2] [Malonatodiammineplatinum (II), Malonatodiammineplatinum(II)]
- Deaths (Sarcoma 180 [1]; 14 mg/kg): 4
- Total Number of Regressions (Sarcoma 180 [1]; 14 mg/kg): 2
- Deaths (Sarcoma 180 [1]; 16 mg/kg): 3
- Total Number of Regressions (Sarcoma 180 [1]; 16 mg/kg): 3
- Deaths (Sarcoma 180 [1]; 18 mg/kg): 2
- Total Number of Regressions (Sarcoma 180 [1]; 18 mg/kg): 4
- Deaths (Sarcoma 180 [1]; 20 mg/kg): 1
- Total Number of Regressions (Sarcoma 180 [1]; 20 mg/kg): 5
- % Increase in Lifespan (L1210; 12.5 mg/kg): 115%
- % Increase in Lifespan (L1210; 25 mg/kg): 133%
- % Increase in Lifespan (L1210; 50 mg/kg): 163%
- No. of Deaths (Sarcoma 180 [2]; 10 mg/kg): 0
- T/C (Sarcoma 180 [2]; 10 mg/kg): 76
- No. of Deaths (Sarcoma 180 [2]; 15 mg/kg): 0
- T/C (Sarcoma 180 [2]; 15 mg/kg): 38
- No. of Deaths (Sarcoma 180 [2]; 20 mg/kg): 0
- T/C (Sarcoma 180 [2]; 20 mg/kg): 64
- No. of Deaths (Sarcoma 180 [2]; 25 mg/kg): 0
- T/C (Sarcoma 180 [2]; 25 mg/kg): 31
- No. of Deaths (Sarcoma 180 [2]; 30 mg/kg): 1/6
- T/C (Sarcoma 180 [2]; 30 mg/kg): 7
- No. of Deaths (Sarcoma 180 [2]; 40 mg/kg): 6/6
- No. of Deaths (Sarcoma 180 [2]; 50 mg/kg): 5/6
- T/C (Sarcoma 180 [2]; 50 mg/kg): 1
- No. of Deaths (Sarcoma 180 [2]; 60 mg/kg): 6/6
- hydrolysis [3]: negligible

From patent publication US4657927A, “Malonato platinum compounds” (Research Corporation, priority 1983, dated 1987)
